From patent US11904004B2, “Anti-CD277 antibodies” (INSTITUT NATIONAL DE LA SANTE ET DE LA RECHERCHE MEDICALE …, priority 2010, dated 2024) come the findings set out here.

Where “and” joins values, the source holds several entries; their conditions need not be identical. Equal entries are not always repeated.

Holding throughout (assay type): cell-based, human
Test [1] deals with immature dendritic cells (iDC). As to the kind of experiment: Apoptosis detection (Annexin V), survival of iDC. The following applies: plastic-coated mAb or GM-CSF, 72-h culture, representative value and range of five experiments. Here is the method: (§1) Blood samples were obtained from 5 healthy volunteers enrolled among the staff members, after informed consent. Monocytes were separated from peripheral blood mononuclear cells, and isolated using the MACS CD14 isolation kit (Miltenyi Biotech, Auburn, Calif. USA). Monocytes were cultured for 5 days with 200 ng/ml of recombinant human GM-CSF and 10 ng/ml recombinant human IL-4 (Schering-Plough Research Institute). These cells were termed immature dendritic cells (iDC). To achieve the stimulation, monocytes and iDC were cultured with 10 ng/ml of LPS, ligand for TLR4, 30 μg/ml of 8848 (Sigma-Aldrich, Milano, Italy), ligand for TLR7/8 and with […] of poly (I:C) (Sigma-Aldrich), ligand for TLR3, and were harvested after 48 h. The cells were cultured in RPMI 1640 supplemented with 10% heat-inactivated FCS, 5 mM L-glutamine and 50 IU/ml penicillin-streptomycin (from here on referred to as complete medium).
(§2) Monocytes and iDC were cultured on plastic coated with anti-BT3 mAb (clone 20.1) or with isotype-matched irrelevant mAb. As control, the cells were stimulated with 20 ng/ml recombinant human GM-CSF (Schering-Plough Research Institute). After three days, cells were harvested, stained with Annexin V-FITC (Bender MedSystems, Wien, Austria) and analysed by flow cytometry.

The next test relates to monocytes. As to the kind of experiment: Apoptosis detection (Annexin V), survival of monocytes. The following applies: plastic-coated mAb or 20 ng/ml GM-CSF, 3 days (72 hours), Annexin V; representative value and range of five experiments. Here is the method:
as §1, §2

Test [2] deals with primary AML blasts. As to the kind of experiment: Chromium release assay, lysis of primary AML blasts by Vγ9Vδ2 T cells. To be noted: E:T 30:1; ZOL 45 μM O/N, 20.1 mAb 10 μg/ml, BrHpp 2 μM. How it is done: (§3) Effector γδ T cells were established and maintained as previously described^28. PBMC from HV were stimulated with ZOL (1 μm) and rhlL-2 (200 IU/ml) at Day 0. From Day 5, rhIL-2 was renewed every two days and cells were kept at 1.5×10^6/m1 for 15 days. NK cells were isolated using EASYSEP® Human NK cell enrichment kit (StemCell Technologies). The purity of γδ T cells and NK cells was determined by flow cytometry and respectively greater than 80% and 98%. The Burkitt lymphoma cell line, DAUDI, the human AML cell line, U937, and the erythroleukemic cell line, K562, were obtained from the American Type Culture Collection and cultured (0.5×10^6/ml) in RPMI 1640 medium with 10% FCS. BTN3A Knock-down HEK293FT cells (sh #284; clone #30) were provided by E.Scotet (Inserm U892, Nantes), cultured and transfected with BTN3A1, BTN3A2, BTN3A3 mutated cDNA-containing plasmids, as described^23.
(§4) 0.5×10^6 target cells were incubated with 50 pCi of ^51Cr (Perkin-Elmer) for AML blasts and 10 pCi for DAUDI and K562 cells for 90 minutes and mixed with effector cells in a Effector:Target (E:T) ratio of […]. After 4 hours of incubation at 37° C., 50p1 supernatant of each sample was transferred in LUMA® plates and radioactivity was determined by a gamma counter. The percentage of specific lysis was calculated using the formula [(experimental−spontaneous release/total−spontaneous release)×100] and expressed as the mean of triplicate.

Test [3] has as its system primary AML blasts. As to the kind of experiment: Chromium release assay, lysis of primary AML blasts by NK cells. Here is the method:
as §3, with “BTN3A Knock-down HEK293FT cells (sh #284; clone #30) were provided by E.Scotet (Inserm U892, Nantes), cultured and transfected with BTN3A1, BTN3A2, BTN3A3 mutated cDNA-containing plasmids, as described^23.” left out
as §4

For the next test, the system named is Vγ9Vδ2 T cells. The test can be described thus: Activation / CD107 degranulation of expanded Vγ9Vδ2 T cells (phosphoantigen or anti-CD3 stimulation). To be noted: increasing doses of BrHPP alone. Here is the method:
We used for γδ T cells labelling in purity test after expansion, anti-CD3 PE-Cy7 and anti-Vδ2 FITC mAb (BD Pharmingen). For CD277 characterisation in different subsets PBMC were incubated with the following antibodies and molecules: anti-CD3 PE-Cy5 (BD Pharmingen), anti-CD4 PB (BD Pharmingen), anti-CD8 PB (BD Pharmingen), anti-Vδ2 FITC (BD Pharmingen), anti-CD27 APC ALEXA FLUOR® 750 (CALTAG Laboratory), anti-CCR7 PECy7 (BD Pharmingen), anti-CD28 PE (Beckman Coulter), anti-CD45RA ECD (Beckman Coulter), LIVE/DEAD® Fixable Dead Cell Stain Kit (L34957, Invitrogen) and anti-CD277 labelled with ALEXA FLUOR® 647 (Protein labelling Kit ALEXA FLUOR® 647, Molecular Probes, Invitrogen). […] All samples were measured on FACSCANTO® or FACSARIA® flow cytometers (BD Biosciences) using FACSDIVA® software. […]
PBMC were plated and stimulated as described in the paragraph: cell lines and expansion of γδ T cells, except cells were stimulated with anti-CD277 mAbs (10 μg/ml); or control isotypes (10 μg/ml); and with or without BrHPP at different concentrations. […] Percentages of Vγ9Vδ2 were measured the first day and the last day of culture as described above. […] Activation of degranulation was measured by CD107 labelling assay as described above.

In the case of “GM-CSF: recombinant human GM-CSF, survival control [reference compound]”, the “healthy-vital (surviving) iDC” value in test [1] was 85.97% and 71.01-85.97%. Moreover, in the test with monocytes, the “monocytes survived in the absence of endogenous survival factors” value was 81.22% and 60.41-83%.
Take `O=P(O)(O)C(O)(Cn1ccnc1)P(=O)(O)O` [ZOL, Zoledronate, reference compound]: in the test on primary AML blasts [2], the “enhancement of Vγ9Vδ2 T cells lysis of AML blasts compared with BrHpp” value is listed as “significantly more efficient”. Moreover, the “NK cells-mediated AML blasts lysis” value in the test with primary AML blasts [3] is “no effect”.
On to `CC(O)(CBr)CCOP(=O)(O)OP(=O)(O)O` (centres unmarked) [BrHPP], for which, in the test with Vγ9Vδ2 T cells, the CD107 expression result was “up to 40%”.
